Assay results published in article PMC9090415, “Discovery of small molecule inhibitors of Plasmodium falciparum apicoplast DNA polymerase” (Journal of Enzyme Inhibition and Medicinal Chemistry, 2022).

Biological target: P. falciparum apicoplast DNA polymerase (Pf-apPOL) (Plasmodium falciparum, UniProt Q8ILY1)
Assay: Fluorescence-based high-throughput DNA polymerase assay (molecular beacon), primary screen and dose-response
Assay type: biochemical
Protocol: The HT assay employs a molecular beacon, a stem-loop DNA template with a Cy3 dye and the Black Hole Quencher on the 3′ and 5′ ends of the DNA, respectively. Pf-apPOL concentration is based on a calculated absorptivity of ε280 = 56750 M^−1 cm^−1. Reactions were carried out at 25 °C, using Corning 3575 […] (well-volume, 20 µL). Assays testing for compound inhibition composed of reaction buffer (pH 7.9 in 50 mM potassium acetate, 20 mM Tris-acetate and 10 mM magnesium acetate), Pf-apPOL (20 nM), DNA substrate (20 nM), dNTPs (6 µM), and compound (10 µM in DMSO). The DNA and nucleotide substrates (dNTPs) were at concentrations of 20 nM and 6 µM, respectively, in the assay. Pf-apPOL was incubated in the reaction buffer with dNTPs and the compound of interest (10 µM, in the assay) at 25 °C for 10 min. The DNA substrate was then added and the reaction was allowed to proceed for 90 min at 25 °C.
Each assay plate contained 16 negative controls (no Pf-apPOL, DMSO present) and 16 positive controls (Pf-apPOL present, no DMSO). The fluorescence of each well was determined using a BioTek Synergy Neo fluorescence plate reader using excitation and emission wavelengths of 555 and 570 nm, respectively.
In the above, Min is the average of fluorescence emission of the negative controls (substrate only), Max the average fluorescence emission from the positive controls (enzyme + substrate), and Test the emission from the assays in the presence of compounds (enzyme + compound + substrates). […] […] The IC50 of each compound was determined using Equation (2): (2) IC50= Vmax/(1+ (I/IC50)^n)
In the above, n measures cooperativity, with n > 1 indicating synergistic binding of more than a single molecule of the compound.
To identify apPOL inhibitors we utilised our previously developed high-throughput DNA polymerase assay. The HT assay is based on a molecular beacon DNA template that forms a stem-loop with a Cy3 dye and the Black Hole Quencher on the 3′ and 5′ ends of the DNA, respectively. DNA polymerase activity extends an annealed primer through the stem region, displacing the fluorophore from the quencher, thereby increasing its fluorescence (Figure 1(A)). The assay accurately recapitulates the kinetic behaviour of apPOL, as measured through more conventional low-throughput gel-based assays. The Z′ factor for the assay described here was 0.9 across all plates (data not shown).
Figure 1. High-throughput screening. (A) The fluorescent-based DNA polymerase assay used to screen the compound libraries. The DNA template strand is a hairpin loop with a primer annealed to the loop. The 3’ end of the primer is 11 bases away from the 6 bp duplex. Strand displacement activity of the DNA polymerase separates the Cy3 dye from the Black hole quencher leading to an increase in fluorescent signal. (B) The high-throughput assay workflow. The DNA polymerase is incubated with […] compound for 10 min prior to addition of the hairpin substrate. The reaction is quenched at 3 different time points and the fluorescent signal is measured and % inhibition is determined using the provided equation.

[1] = primary screen value of the 186 hits; unit not given; 90 min, 10 µM

P. falciparum apicoplast DNA polymerase (Pf-apPOL), sequence (Q8ILY1 entry or part of it): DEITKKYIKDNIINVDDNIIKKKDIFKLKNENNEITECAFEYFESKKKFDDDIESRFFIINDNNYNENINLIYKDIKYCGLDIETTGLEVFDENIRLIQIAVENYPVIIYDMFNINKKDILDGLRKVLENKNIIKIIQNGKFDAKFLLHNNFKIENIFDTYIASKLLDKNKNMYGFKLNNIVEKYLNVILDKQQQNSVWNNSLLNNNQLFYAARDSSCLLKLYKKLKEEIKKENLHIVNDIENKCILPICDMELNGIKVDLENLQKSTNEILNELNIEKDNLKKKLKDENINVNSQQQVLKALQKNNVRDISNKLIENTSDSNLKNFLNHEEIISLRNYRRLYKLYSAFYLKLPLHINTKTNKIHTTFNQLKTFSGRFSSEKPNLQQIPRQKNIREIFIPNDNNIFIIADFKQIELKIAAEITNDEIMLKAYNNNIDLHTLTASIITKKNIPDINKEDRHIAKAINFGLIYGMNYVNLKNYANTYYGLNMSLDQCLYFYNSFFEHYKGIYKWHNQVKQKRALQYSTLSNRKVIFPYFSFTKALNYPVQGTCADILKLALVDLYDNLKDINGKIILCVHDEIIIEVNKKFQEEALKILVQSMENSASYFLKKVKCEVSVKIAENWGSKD

O=C(Nc1c2c(nn1-c1ccccc1)CSC2)c1ccco1 [KU0055213]
% inhibition Apo pol 10' (DRC-1; concentration 2.5; 10'): 28.0848% | % inhibition Apol 90' (DRC-1; concentration 2.5; 90'): 10.2281% | % inhibition apPOL 180' (DRC-1; concentration 2.5; 180'): -1.233% | % inhibition Apo pol 10' (DRC-1; concentration 5; 10'): 39.8975% | % inhibition Apol 90' (DRC-1; concentration 5; 90'): 17.5159% | % inhibition apPOL 180' (DRC-1; concentration 5; 180'): 1.991% | % inhibition Apo pol 10' (DRC-1; concentration 10; 10'): 66.5971% | % inhibition Apol 90' (DRC-1; concentration 10; 90'): 43.2893% | % inhibition apPOL 180' (DRC-1; concentration 10; 180'): 23.4061% | % inhibition Apo pol 10' (DRC-1; concentration 20; 10'): 82.6519% | % inhibition Apol 90' (DRC-1; concentration 20; 90'): 64.6698% | % inhibition apPOL 180' (DRC-1; concentration 20; 180'): 46.0885% | % inhibition Apo pol 10' (DRC-1; concentration 40; 10'): 90.9141% | % inhibition Apol 90' (DRC-1; concentration 40; 90'): 82.7699% | % inhibition apPOL 180' (DRC-1; concentration 40; 180'): 72.6518% | % inhibition Apo pol 10' (DRC-1; concentration 80 (unit not given); 10'): 92.3383% | % inhibition Apol 90' (DRC-1; concentration 80; 90'): 91.2919% | % inhibition apPOL 180' (DRC-1; concentration 80; 180'): 88.3514% | % inhibition Apo pol 5' (DRC-2; 5'; concentration 2.5): 24% | % inhibition Apo pol 5' (DRC-2; 5'; concentration 5): 37% | % inhibition Apo pol 5' (DRC-2; 5'; concentration 40): 59% | % inhibition Apo pol 5' (DRC-2; 5'; concentration 80): 59% | % inhibition Apol 40' (DRC-2; 40'; concentration 20): 59% | % inhibition Apol 40' (DRC-2; 40'; concentration 40): 70% | % inhibition ApPOL 90' (DRC-2; 90'; concentration 10): 37% | % inhibition ApPOL 90' (DRC-2; 90'; concentration 40): 70% | % inhibition apPOL 180' (DRC-2; 180'; concentration 10): 24% | % inhibition Apo pol 5' (DRC-2; concentration 2.5; 5'): 24% | % inhibition Apol 40' (DRC-2; concentration 2.5; 40'): 21% | % inhibition ApPOL 90' (DRC-2; concentration 2.5; 90'): 17% | % inhibition apPOL 180' (DRC-2; concentration 2.5; 180'): 9% | % inhibition Apo pol 5' (DRC-2; concentration 5; 5'): 37% | % inhibition Apol 40' (DRC-2; concentration 5; 40'): 36% | % inhibition ApPOL 90' (DRC-2; concentration 5; 90'): 32% | % inhibition apPOL 180' (DRC-2; concentration 5; 180'): 20% | % inhibition Apo pol 5' (DRC-2; concentration 10; 5'): 44% | % inhibition Apol 40' (DRC-2; concentration 10; 40'): 42% | % inhibition ApPOL 90' (DRC-2; concentration 10; 90'): 37% | % inhibition apPOL 180' (DRC-2; concentration 10; 180'): 24% | % inhibition Apo pol 5' (DRC-2; concentration 20; 5'): 52% | % inhibition Apol 40' (DRC-2; concentration 20; 40'): 59% | % inhibition ApPOL 90' (DRC-2; concentration 20; 90'): 57% | % inhibition apPOL 180' (DRC-2; concentration 20; 180'): 49% | % inhibition Apo pol 5' (DRC-2; concentration 40; 5'): 59% | % inhibition Apol 40' (DRC-2; concentration 40; 40'): 70% | % inhibition ApPOL 90' (DRC-2; concentration 40; 90'): 70% | % inhibition apPOL 180' (DRC-2; concentration 40; 180'): 65% | % inhibition Apo pol 5' (DRC-2; concentration 80; 5'): 59% | % inhibition Apol 40' (DRC-2; concentration 80; 40'): 75% | % inhibition ApPOL 90' (DRC-2; concentration 80; 90'): 77% | % inhibition apPOL 180' (DRC-2; concentration 80; 180'): 78% | DNA Pol [1]: 50 | DNA Pol (primary screen value; head prints only 'DNA Pol'; 90 min, 10 µM): 50

Cc1cc(C)cc(-n2nc3c(c2NC(=O)c2ccco2)CSC3)c1 [KU0055926]
% inhibition Apo pol 10' (DRC-1; 10'; concentration 2.5): 8.0326% | % inhibition Apo pol 10' (DRC-1; 10'; concentration 5): 29.0516% | % inhibition Apo pol 10' (DRC-1; 10'; concentration 10): 59.7607% | % inhibition Apo pol 10' (DRC-1; 10'; concentration 20): 82.6519% | % inhibition Apo pol 10' (DRC-1; 10'; concentration 40): 88.4046% | % inhibition Apo pol 10' (DRC-1; 10'; concentration 80): 87.3935% | % inhibition Apol 90' (DRC-1; 90'; concentration 2.5): -0.9298% | % inhibition Apol 90' (DRC-1; 90'; concentration 5): 15.258% | % inhibition Apol 90' (DRC-1; 90'; concentration 10): 43.5557% | % inhibition Apol 90' (DRC-1; 90'; concentration 20): 72.7845% | % inhibition Apol 90' (DRC-1; 90'; concentration 40): 86.0941% | % inhibition Apol 90' (DRC-1; 90'; concentration 80): 88.1488% | % inhibition apPOL 180' (DRC-1; 180'; concentration 2.5): -5.803% | % inhibition apPOL 180' (DRC-1; 180'; concentration 5): 4.111% | % inhibition apPOL 180' (DRC-1; 180'; concentration 10): 27.2882% | % inhibition apPOL 180' (DRC-1; 180'; concentration 20): 60.1388% | % inhibition apPOL 180' (DRC-1; 180'; concentration 40): 79.5226% | % inhibition apPOL 180' (DRC-1; 180'; concentration 80): 84.9587% | % inhibition Apo pol 5' (DRC-2; 5'; concentration 2.5): 11% | % inhibition Apo pol 5' (DRC-2; 5'; concentration 5): 21% | % inhibition Apo pol 5' (DRC-2; 5'; concentration 10): 38% | % inhibition Apo pol 5' (DRC-2; 5'; concentration 20): 50% | % inhibition Apo pol 5' (DRC-2; 5'; concentration 40): 54% | % inhibition Apo pol 5' (DRC-2; 5'; concentration 80): 54% | % inhibition Apol 40' (DRC-2; 40'; concentration 2.5): 12% | % inhibition Apol 40' (DRC-2; 40'; concentration 5): 24% | % inhibition Apol 40' (DRC-2; 40'; concentration 10): 41% | % inhibition Apol 40' (DRC-2; 40'; concentration 20): 60% | % inhibition Apol 40' (DRC-2; 40'; concentration 40): 69% | % inhibition Apol 40' (DRC-2; 40'; concentration 80): 71% | % inhibition ApPOL 90' (DRC-2; 90'; concentration 2.5): 10% | % inhibition ApPOL 90' (DRC-2; 90'; concentration 5): 21% | % inhibition ApPOL 90' (DRC-2; 90'; concentration 10): 38% | % inhibition ApPOL 90' (DRC-2; 90'; concentration 20): 60% | % inhibition ApPOL 90' (DRC-2; 90'; concentration 40): 71% | % inhibition ApPOL 90' (DRC-2; 90'; concentration 80): 74% | % inhibition apPOL 180' (DRC-2; 180'; concentration 2.5): 6.36% | % inhibition apPOL 180' (DRC-2; 180'; concentration 5): 13% | % inhibition apPOL 180' (DRC-2; 180'; concentration 10): 27% | % inhibition apPOL 180' (DRC-2; 180'; concentration 20): 53% | % inhibition apPOL 180' (DRC-2; 180'; concentration 40): 68% | % inhibition apPOL 180' (DRC-2; 180'; concentration 80): 74% | % inhibition Apo pol 5' (conc. 5; 5'; DRC-2): 21% | % inhibition ApPOL 90' (conc. 5; 90'; DRC-2): 21% | % inhibition Apo pol 5' (conc. 10; 5'; DRC-2): 38% | % inhibition ApPOL 90' (conc. 10; 90'; DRC-2): 38% | % inhibition Apol 40' (conc. 20; 40'; DRC-2): 60% | % inhibition ApPOL 90' (conc. 20; 90'; DRC-2): 60% | % inhibition Apo pol 5' (conc. 40; 5'; DRC-2): 54% | % inhibition ApPOL 90' (conc. 40; 90'; DRC-2): 71% | % inhibition Apo pol 5' (conc. 80; 5'; DRC-2): 54% | % inhibition Apol 40' (conc. 80; 40'; DRC-2): 71% | % inhibition ApPOL 90' (conc. 80; 90'; DRC-2): 74% | % inhibition apPOL 180' (conc. 80; 180'; DRC-2): 74% | DNA Pol (primary screen value by plate and well; 90 min, 10 µM): 58 | DNA Pol [1]: 58
